# Legend:
# [1] = tested on: cell lines, both from solid as well as hematologic tumors; settings: large number of cell lines; cited from earlier work
# [2] = tested on: phosphorylation of the PLK1 substrate, TCTP; assay: Plasma inhibitory activity assay (pTCTP/TCTP in HL-60 cells incubated with patient plasma); assay type: cell-based
# Method: Plasma inhibitory activity assay: Onvansertib plasma inhibitory activity was assessed by measuring changes in the phosphorylation of the PLK1 substrate, TCTP, as described previously for FLT3 inhibitors. HL-60 cell line used for this assay was obtained from the ATCC and cultured in Iscove's modified Dulbecco's medium supplemented with 20% FBS. The cell line was not tested for Mycoplasma. Briefly, 3×10^6 HL-60 cells (passage 2-5) were incubated with 1 mL of patient plasma at 37° C. for 1 hour. Cells were washed, lysed, and changes in phosphorylated TCTP (pTCTP)/TCTP were assessed by immunoblot. […] For each dose level, 3-4 patients were analyzed (a total of 18 patients) on the basis of the availability of plasma samples, and each dose level included at least 1 patient of each arm (LDAC/decitabine). For each patient, pTCTP/TCTP level was quantified in cells incubated with plasma collected on day 1 at predose and postdose (tmax) and normalized to day 1 predose sample to measure the % pTCTP inhibition by onvansertib-containing plasma.
# Protein extract preparation and immunoblot: Protein extracts were prepared from PBMCs isolated from CellSave tube and from HL-60 cells using M-PER buffer with Protease and Phosphatase Inhibitor Cocktails (Thermo Fisher Scientific). Protein concentration was measured with the Pierce BCA Protein Assay Kit (Thermo Fisher Scientific). […]
# [3] = biological target: PLK1 (Homo sapiens, UniProt P53350); settings: panel of 296 kinases, including other PLK members; cited from earlier work
# Sequence of PLK1 (P53350 whole entry): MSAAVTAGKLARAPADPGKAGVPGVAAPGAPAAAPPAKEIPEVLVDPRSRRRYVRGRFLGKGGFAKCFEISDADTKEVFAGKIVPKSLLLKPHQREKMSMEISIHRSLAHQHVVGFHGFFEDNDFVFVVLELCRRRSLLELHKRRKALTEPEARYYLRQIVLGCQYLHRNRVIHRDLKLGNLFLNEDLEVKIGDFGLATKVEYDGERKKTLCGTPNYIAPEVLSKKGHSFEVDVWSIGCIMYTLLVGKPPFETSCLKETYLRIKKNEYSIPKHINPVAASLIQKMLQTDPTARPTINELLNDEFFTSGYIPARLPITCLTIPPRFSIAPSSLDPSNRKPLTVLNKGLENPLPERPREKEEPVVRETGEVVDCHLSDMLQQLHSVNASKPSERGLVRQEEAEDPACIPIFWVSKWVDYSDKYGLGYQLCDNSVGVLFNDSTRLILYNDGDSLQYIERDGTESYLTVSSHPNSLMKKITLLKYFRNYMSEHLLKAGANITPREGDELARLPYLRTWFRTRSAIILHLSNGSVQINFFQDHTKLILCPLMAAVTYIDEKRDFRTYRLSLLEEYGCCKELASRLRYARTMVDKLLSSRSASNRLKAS
# [4] = tested on: AML cell lines; settings: cited from earlier work
compound,measurement,setting,value
"CN1CCN(c2ccc(OC(F)(F)F)c(Nc3ncc4c(n3)-c3c(c(C(N)=O)nn3CCO)CC4)c2)CC1 [onvansertib, 1-(2-hydroxyethyl)-8-{[5-(4-methylpiperazin-1-yl)-2-(trifluoromethoxy)phenyl]amino}-4,5-dihydro-1H-pyrazolo [4,3-h] quinazoline-3-carboxamide]",activity in proliferation assays,[1],low nanomolar activity
same,pTCTP inhibition by patient plasma versus dose,[2]; plasma from all dose levels (12-60 mg/m^2),greater pTCTP inhibition at higher doses
same,pTCTP in HL-60 cells incubated with on-treatment plasma,"[2]; plasma of days 1 and 5, not with day 22 plasma (undetectable onvansertib)",reduced
same,specificity for PLK1,[3],high specificity
same,inhibition of cell proliferation,[4],nanomolar concentrations

# Reference: patent US20230167505A1, “CIRCULATING TUMOR DNA AS A BIOMARKER FOR LEUKEMIA TREATMENT” (Cardiff Oncology, Inc., priority 2020, published 2023)
